Assay results as given in the supplement of paper PMC4862054.

Assays:
[1] = test system: CAL-120; details: 72 h
Procedure, shortened: (§1)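 In this assay, breast cancer cell lines spent 72 h with compound at 5 concentrations in 10-fold steps over a compound-specific 10,000-fold range. The first readout was cell death by CellTox Green fluorescence, and the second was viability by CellTiter-Glo luminescence, each normalised per plate to 0.1 % DMSO and a positive kill control. EC50 came from the dose-response curves, censored at the top concentration.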

[2] = test system: HCC1599; assay: drug sensitivity score (DSS), CellTox Green (DSS (AUC-based score)); higher = stronger drug effect (viability inhibition or cytotoxicity); extreme values may be limits of the assay; details: incubation time: 72 h
Procedure, shortened: (§2)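 Using 20 µl of cell suspension per well, breast cancer cell lines were seeded into 384-well plates pre-loaded with compound at 5 concentrations in 10-fold steps across a compound-specific 10,000-fold range. Incubation lasted 72 h, after which CellTox Green fluorescence at 485/520 nm and then CellTiter-Glo luminescence, following 10 min at room temperature, were recorded. Each plate was normalised to 0.1 % DMSO and a positive kill control before the drug sensitivity score was derived from the area under the fitted dose-response curve.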

[3] = test system: MDA-MB-468; assay: as above; details: incubation time: 72 h
Procedure, shortened: as §2

[4] = test system: HCC1143; assay: as above; details: incubation time: 72 h
Procedure, shortened: as §2

[5] = test system: CAL-85-1; assay: as above; details: incubation time: 72 h
Procedure, shortened: as §2

[6] = test system: HDQ-P1; assay: as above; details: incubation time: 72 h
Procedure, shortened: as §2

[7] = test system: CAL-51; assay: as above; details: incubation time: 72 h
Procedure, shortened: as §2

[8] = test system: MDA-MB-436; assay: as above; details: incubation time: 72 h
Procedure, shortened: as §2

[9] = test system: MFM-223; assay: as above; details: incubation time: 72 h
Procedure, shortened: as §2

[10] = test system: BT-549; assay: as above; details: incubation time: 72 h
Procedure, shortened: as §2

[11] = test system: BT-474; assay: as above; details: incubation time: 72 h
Procedure, shortened: as §2

[12] = test system: DU-4475; assay: as above; details: incubation time: 72 h
Procedure, shortened: as §2

[13] = test system: CAL-120; assay: as above; details: incubation time: 72 h
Procedure, shortened: as §2

[14] = test system: MDA-MB-453; assay: as above; details: incubation time: 72 h
Procedure, shortened: as §2

[15] = test system: CAL-148; assay: as above; details: incubation time: 72 h
Procedure, shortened: as §2

[16] = test system: Hs578T; assay: as above; details: incubation time: 72 h
Procedure, shortened: as §2

[17] = test system: MCF-10A; assay: as above; details: incubation time: 72 h
Procedure, shortened: as §2

[18] = test system: MDA-MB-231; assay: as above; details: incubation time: 72 h
Procedure, shortened: as §2

[19] = test system: HCC1937; assay: as above; details: incubation time: 72 h
Procedure, shortened: as §2

[20] = test system: MDA-MB-468; details: 72 h
Procedure, shortened: as §1

[21] = test system: MDA-MB-453; details: 72 h
Procedure, shortened: (§3)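 Plates of 384 wells holding compound in 5 µl medium received breast cancer cell lines in 20 µl suspension and were incubated 72 h. CellTiter-Blue (2.5 µl, 2 h, 37 °C) was used for viability, read at 560/590 nm, and every plate was normalised to vehicle and a positive kill control and assessed by Z'-factor. The EC50 derives from a percent-inhibition dose-response curve fit censored at the highest concentration, leaving out rows whose drug sensitivity score was zero.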

[22] = test system: CAL-51; details: 72 h
Procedure, shortened: as §1

[23] = test system: HCC1143; details: 72 h
Procedure, shortened: as §1

[24] = test system: BT-549; details: 72 h
Procedure, shortened: as §1

[25] = test system: BT-474; details: 72 h
Procedure, shortened: as §1

[26] = test system: MCF-10A; details: 72 h
Procedure, shortened: as §1

[27] = test system: MDA-MB-231; details: 72 h
Procedure, shortened: as §1

[28] = test system: CAL-85-1; details: 72 h
Procedure, shortened: as §3

[29] = test system: HDQ-P1; details: 72 h
Procedure, shortened: as §3

[30] = test system: CAL-51; details: 72 h; remark: listed apart in the source
Procedure, shortened: as §3

[31] = test system: DU-4475; details: 72 h
Procedure, shortened: as §1

[32] = test system: MDA-MB-436; details: 72 h
Procedure, shortened: as §1

EC50, CellTiter-Glo [20] [nM] | EC50, CellTiter-Blue viability [21] [nM] | EC50, CellTiter-Glo [23] [nM] | EC50, CellTiter-Glo [24] [nM] | EC50, CellTiter-Glo [25] [nM] | EC50, CellTiter-Glo [27] [nM] | EC50, CellTiter-Glo [32] [nM] | Structure (SMILES) | EC50, CellTiter-Glo [1] [nM] | drug sensitivity score [2] | drug sensitivity score [3] | drug sensitivity score [4] | drug sensitivity score [5] | drug sensitivity score [6] | drug sensitivity score [7] | drug sensitivity score [8] | drug sensitivity score [9] | drug sensitivity score [10] | drug sensitivity score [11] | drug sensitivity score [12] | drug sensitivity score [13] | drug sensitivity score [14] | drug sensitivity score [15] | drug sensitivity score [16] | drug sensitivity score [17] | drug sensitivity score [18] | drug sensitivity score [19] | EC50, CellTiter-Glo [22] [nM] | EC50, CellTiter-Glo [26] [nM] | EC50, CellTiter-Blue viability [28] [nM] | EC50, CellTiter-Blue viability [29] [nM] | EC50, CellTiter-Blue viability [30] [nM] | EC50, CellTiter-Glo [31] [nM]
– | – | – | – | – | – | – | Nc1cccc2c1CN(C1CCC(=O)NC1=O)C2=O (centres undefined) [Lenalidomide] | > 10000 | 0 | 0 | 0 | 0 | 0 | 0 | 0 | 0 | 0 | 0 | 0 | 0 | 0 | 1.27 | 0 | 0 | 0 | 0 | – | – | – | – | – | –
2470 | – | – | – | – | – | – | CC(C)N(CCCNC(=O)Nc1ccc(C(C)(C)C)cc1)C[C@H]1O[C@@H](n2cc(Br)c3c(N)ncnc32)[C@H](O)[C@@H]1O [SGC0946] | – | 0 | 0 | 0 | 0 | 0 | 0 | 0 | 0 | 0 | 0 | 0 | 0 | 0 | 0 | – | 0 | 0 | 0 | – | – | – | – | – | –
– | 171 | – | – | – | – | – | C[C@]12C=CC(=O)C=C1CC[C@@H]1[C@@H]2[C@@H](O)C[C@@]2(C)[C@H]1CC[C@]2(O)C(=O)CO [Prednisolone] | 99.1 | 0 | 0 | 1.2 | 0 | 0.861 | 0 | – | 0 | 0 | 0 | 0 | 0 | 0 | 0 | 0 | 0 | 0 | 0 | – | – | – | – | – | –
– | – | – | – | – | – | – | Cc1cccc(-c2nn3c(c2-c2ccnc4ccc(C(N)=O)cc24)CCC3)n1 [Galunisertib] | – | 0 | 0 | 0 | 0 | 0 | 0 | 0.892 | 0 | 0 | 0 | 0 | 0 | 0 | 0 | 0 | 0 | 0 | 0 | > 1000 | – | – | – | – | –
28.5 | – | 29.5 | 40.6 | 14 | 16.4 | – | Cc1nc(Nc2ncc(C(=O)Nc3c(C)cccc3Cl)s2)cc(N2CCN(CCO)CC2)n1 [Dasatinib] | 36.6 | 0 | 0 | 0 | 6.5 | 0 | 6.25 | 0 | 0 | 2.37 | 0 | 0 | 0 | 0 | 0 | 6.23 | 7.15 | 4.62 | 0 | 12.7 | 16.4 | 83.9 | 12.4 | 22.2 | –
– | > 10000 | – | 24400 | – | – | – | O=S(=O)(c1cccc2cnccc12)N1CCCNCC1 [Fasudil] | – | 0 | – | 0 | 0 | – | 0 | 0 | 0 | 0 | 0 | 0 | 0 | 0 | 0 | 0 | 0 | 2.62 | 0 | – | – | – | – | – | > 50000
– | – | – | – | – | – | – | CCN(CC)CCNC(=O)c1c(C)[nH]c(/C=C2\C(=O)Nc3ccc(F)cc32)c1C [Sunitinib] | – | 0 | 0 | 0 | 0 | 0 | 0 | 0 | 0 | 0 | 0 | 0 | 0 | 0 | 0 | 2.45 | 0 | 0 | 0 | – | – | – | 721 | – | –
534 | – | – | 53.6 | – | – | > 10000 | Cc1c(Cn2c(C)nc3c(C(=O)O)cc(N4CCOCC4)cc32)cccc1C(F)(F)F | – | 0 | 0 | 0 | 0 | 0 | 0 | 0 | 0 | 0 | 0 | 0 | 0 | 0 | 0 | 0 | 0 | 0 | 0 | 8.16 | – | – | – | – | –
